From patent US8829030B2 (priority 2002, dated 2014)

target: recombinant HCV RNA-dependent RNA polymerase (NS5B protein) (Hepatitis C virus genotype 1b, UniProt P26663); assay: biochemical; design: species or system HCV-Bk strain
Sequence (P26663 2420-3010 limits assumed): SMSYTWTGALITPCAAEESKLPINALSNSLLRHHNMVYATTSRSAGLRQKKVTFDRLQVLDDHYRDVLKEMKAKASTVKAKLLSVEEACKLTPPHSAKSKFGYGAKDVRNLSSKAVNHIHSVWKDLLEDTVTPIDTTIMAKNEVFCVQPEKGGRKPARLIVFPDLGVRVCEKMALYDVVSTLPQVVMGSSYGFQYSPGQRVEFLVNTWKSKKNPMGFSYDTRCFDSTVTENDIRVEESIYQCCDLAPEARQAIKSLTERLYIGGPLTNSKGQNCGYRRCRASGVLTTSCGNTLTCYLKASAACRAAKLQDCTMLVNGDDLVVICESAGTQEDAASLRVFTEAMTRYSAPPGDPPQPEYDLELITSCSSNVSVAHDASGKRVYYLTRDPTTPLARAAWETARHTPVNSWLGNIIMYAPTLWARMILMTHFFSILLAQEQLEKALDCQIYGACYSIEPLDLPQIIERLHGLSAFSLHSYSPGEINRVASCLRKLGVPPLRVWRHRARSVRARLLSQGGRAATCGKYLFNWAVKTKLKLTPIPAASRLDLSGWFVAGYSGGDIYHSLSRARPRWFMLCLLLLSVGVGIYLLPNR

Structure (SMILES)	IC50 [µM]
CC1CCC(C(=O)N(CC2CCCNC2)c2cc(-c3ccccc3)sc2C(=O)O)CC1 (stereo not shown) [Compound 1, 3-{[(2-carboxy-5-phenyl-thiophen-3-yl)-(4-methyl-cyclohexanecarbonyl)-amino]-methyl}-piperidinium; trifluoro-acetate]	< 5
CC1CCC(C(=O)N(CC2CCCN(C)C2)c2cc(-c3ccccc3)sc2C(=O)O)CC1 (stereo not shown) [Compound 35, 3-{[(2-carboxy-5-phenyl-thiophen-3-yl)-(4-methyl-cyclohexanecarbonyl)-amino]-methyl}-1-methyl-piperidinium chloride]	< 5
CC1CCC(C(=O)N(CC2CCN(C)CC2)c2cc(-c3ccccc3)sc2C(=O)O)CC1 (stereo not shown) [Compound 38, 4-{[(2-carboxy-5-phenyl-thiophen-3-yl)-(4-methyl-cyclohexanecarbonyl)-amino]-methyl}-1-methyl-piperidinium chloride]	< 5
CS(=O)(=O)N1CCC(N(c2cc(-c3ccccc3)sc2C(=O)O)C(=O)[C@H]2CC[C@H](C)CC2)CC1 [Compound 70, 3-[(1-methanesulfonyl-piperidin-4-yl)-(4-methyl-cyclohexanecarbonyl)-amino]-5-phenyl-thiophene-2-carboxylic acid]	< 5
